Assay results as given in ChEMBL document CHEMBL5338805, “Discovery of the First Subnanomolar PPARα/δ Dual Agonist for the Treatment of Cholestatic Liver Diseases” (J Med Chem, 2023).
Activity calls are given as the source filed them. The rule behind the calls is not given here.

How the values were obtained:
[1] = In vivo upregulation of PPAR alpha in C57BL/6JNifdc mouse liver administered orally for 3 days measured after 6 hrs of last administration by real-time PCR analysis; assay type: ADME, organism-based; conditions: po, 78 h, dose 0.03-0.1 mg/kg, time 3.25 day
[2] = biological target: Bile acid receptor (Homo sapiens) (UniProt Q96RI1); experiment: Agonist activity at FXR (unknown origin) transfected in african green monkey COS7 cells assessed transactivation incubated at 1 uM for 16 hrs by luciferase assay; assay type: cell-based
[3] = In vivo upregulation of PPAR delta in C57BL/6JNifdc mouse liver administered at 0.03 mg/kg, po for 3 days measured after 6 hrs of last administration by real-time PCR analysis; assay type: ADME, organism-based; conditions: 78 h
[4] = biological target: Vitamin D3 receptor (Homo sapiens) (UniProt P11473); experiment: Agonist activity at VDR (unknown origin) transfected in african green monkey COS7 cells assessed transactivation incubated at 1 uM for 16 hrs by luciferase assay; assay type: cell-based
[5] = Anti-cholestatic activity in ANIT-induced C57BL/6Nifdc mouse model assessed as decrease in liver TBA at 0.03 to 0.1 mg/kg, po upto 42 hrs measured after 48 hrs; assay type: ADME, organism-based; conditions: in vivo, 90 h, dose 0.03-0.1 mg/kg
[6] = Anti-cholestatic activity in ANIT-induced C57BL/6Nifdc mouse model assessed as decrease in liver 3-DHCA at 0.03 to 0.1 mg/kg, po upto 42 hrs measured after 48 hrs; assay type: ADME, organism-based; conditions: in vivo, 90 h, dose 0.03-0.1 mg/kg
[7] = Anti-cholestatic activity in ANIT-induced C57BL/6Nifdc mouse model assessed as decrease in liver 12-OCDCA at 0.03 to 0.1 mg/kg, po upto 42 hrs measured after 48 hrs; assay type: ADME, organism-based; conditions: in vivo, 90 h, dose 0.03-0.1 mg/kg
[8] = Anti-cholestatic activity in ANIT-induced C57BL/6Nifdc mouse model assessed as decrease in liver GHCA at 0.03 to 0.1 mg/kg, po upto 42 hrs measured after 48 hrs; assay type: ADME, organism-based; conditions: in vivo, 90 h, dose 0.03-0.1 mg/kg
[9] = Anti-cholestatic activity in ANIT-induced C57BL/6Nifdc mouse model assessed as decrease in liver 3-H-7, 12-Dkca at 0.03 to 0.1 mg/kg, po upto 42 hrs measured after 48 hrs; assay type: ADME, organism-based; conditions: in vivo, 90 h, dose 0.03-0.1 mg/kg
[10] = biological target: Retinoic acid receptor alpha (Homo sapiens) (UniProt P10276); experiment: Agonist activity at RARalpha (unknown origin) transfected in african green monkey COS7 cells assessed transactivation incubated at 1 uM for 16 hrs by luciferase assay; assay type: cell-based
[11] = biological target: Voltage-gated inwardly rectifying potassium channel KCNH2 (Homo sapiens, UniProt Q12809); experiment: Inhibition of human ERG by whole cell patch clamp method; assay type: toxicity
[12] = Down-streaming of Cyp27a1 gene expression in C57BL/6JNifdc mouse liver assessed as hepatic resorption of bile acid administered at 0.03 to 0.1 mg/kg, po for 3 days measured after 6 hrs of last administration by real-time PCR analysis; assay type: ADME, organism-based; conditions: in vivo, 78 h, dose 0.03-0.1 mg/kg, time 3.25 day
[13] = Down-streaming of NTCP gene expression in C57BL/6JNifdc mouse liver assessed as hepatic resorption of bile acid administered at 0.03 to 0.1 mg/kg, po for 3 days measured after 6 hrs of last administration by real-time PCR analysis; assay type: ADME, organism-based; conditions: in vivo, 78 h, dose 0.03-0.1 mg/kg, time 3.25 day
[14] = Anti-cholestatic activity in ANIT-induced C57BL/6Nifdc mouse model assessed as decrease in liver DHCA at 0.03 to 0.1 mg/kg, po upto 42 hrs measured after 48 hrs; assay type: ADME, organism-based; conditions: in vivo, 90 h, dose 0.03-0.1 mg/kg
[15] = Anti-cholestatic activity in ANIT-induced C57BL/6Nifdc mouse model assessed as decrease in liver CA at 0.03 to 0.1 mg/kg, po upto 42 hrs measured after 48 hrs; assay type: ADME, organism-based; conditions: in vivo, 90 h, dose 0.03-0.1 mg/kg
[16] = biological target: Thyroid hormone receptor beta (Homo sapiens) (UniProt P10828); experiment: Agonist activity at THRbeta (unknown origin) transfected in african green monkey COS7 cells assessed transactivation incubated at 1 uM for 16 hrs by luciferase assay; assay type: cell-based
[17] = Anti-fibrosis activity in Ccl4-induced C57BL/6Nifdc mouse model assessed as decrease in hydroxyproline in liver administered orally for 3 weeks; assay type: ADME; conditions: in vivo, po, 504 h, dose 0.03-0.1 mg/kg
[18] = Anti-cholestatic activity in ANIT-induced C57BL/6Nifdc mouse model assessed as decrease in liver GCA at 0.03 to 0.1 mg/kg, po upto 42 hrs measured after 48 hrs; assay type: ADME, organism-based; conditions: in vivo, 90 h, dose 0.03-0.1 mg/kg
[19] = biological target: Retinoic acid receptor beta (Homo sapiens) (UniProt P10826); experiment: Agonist activity at RARbeta (unknown origin) transfected in african green monkey COS7 cells assessed transactivation incubated at 1 uM for 16 hrs by luciferase assay; assay type: cell-based
[20] = In vivo upregulation of PPAR delta in C57BL/6JNifdc mouse liver administered orally for 3 days measured after 6 hrs of last administration by real-time PCR analysis; assay type: ADME, organism-based; conditions: po, 78 h, dose 0.03-0.1 mg/kg
[21] = biological target: Retinoic acid receptor RXR-alpha (Homo sapiens) (UniProt P19793); experiment: Agonist activity at RXRalpha (unknown origin) transfected in african green monkey COS7 cells assessed transactivation incubated at 1 uM for 16 hrs by luciferase assay; assay type: cell-based
[22] = Down-streaming of Cyp7a1 gene expression in C57BL/6JNifdc mouse liver assessed as hepatic resorption of bile acid administered at 0.03 mg/kg, po for 3 days measured after 6 hrs of last administration by real-time PCR analysis; assay type: ADME, organism-based; conditions: in vivo, 78 h
[23] = Down-streaming of Cyp7a1 gene expression in C57BL/6JNifdc mouse liver assessed as hepatic resorption of bile acid administered at 0.03 to 0.1 mg/kg, po for 3 days measured after 6 hrs of last administration by real-time PCR analysis; assay type: ADME, organism-based; conditions: in vivo, 78 h, dose 0.03-0.1 mg/kg, time 3.25 day
[24] = Down-streaming of Cyp27a1 gene expression in C57BL/6JNifdc mouse liver assessed as hepatic resorption of bile acid administered at 0.03 mg/kg, po for 3 days measured after 6 hrs of last administration by real-time PCR analysis; assay type: ADME, organism-based; conditions: in vivo, 78 h
[25] = Clearance in fasted Sprague-Dawley rat at 2 mg/kg, IV measured at 0.083 to 24 hrs by LC-MS/MS analysis; assay type: ADME, organism-based; conditions: in vivo, time 0.083-24 hrs
[26] = Anti-fibrosis activity in Ccl4-induced C57BL/6Nifdc mouse model assessed as reversal of increased Col1a1 administered orally for 3 weeks by Western blot analysis; assay type: ADME; conditions: in vivo, po, 504 h, dose 0.03-0.1 mg/kg
[27] = tested on: HEK293; experiment: Cytotoxicity against HEK293 cells incubated upto 100 uM for 24 hrs by CCK8 assay; assay type: toxicity, cell-based; conditions: human, hek293, 24 h
[28] = Upregulation of Mdr2 gene expression in C57BL/6JNifdc mouse liver assessed as increased efflux of bile acid administered at 0.03 to 0.1 mg/kg, po for 3 days measured after 6 hrs of last administration by real-time PCR analysis; assay type: ADME, organism-based; conditions: in vivo, 78 h, dose 0.03-0.1 mg/kg, time 3.25 day
[29] = Anti-fibrosis activity in Ccl4-induced C57BL/6Nifdc mouse model assessed as decrease in inflammatory cells administered orally for 3 weeks; assay type: ADME, cell-based; conditions: in vivo, po, 504 h, dose 0.03-0.1 mg/kg
[30] = Acute toxicity in mouse assessed as moribundity administered at 2000 mg/kg, po for 14 days; assay type: organism-based; conditions: in vivo, 336 h, time 14 day
[31] = Anti-cholestatic activity in ANIT-induced C57BL/6Nifdc mouse model assessed as decrease in liver HCA at 0.03 to 0.1 mg/kg, po upto 42 hrs measured after 48 hrs; assay type: ADME, organism-based; conditions: in vivo, 90 h, dose 0.03-0.1 mg/kg

Sequence of Retinoic acid receptor beta (Homo sapiens) (P10826 whole entry): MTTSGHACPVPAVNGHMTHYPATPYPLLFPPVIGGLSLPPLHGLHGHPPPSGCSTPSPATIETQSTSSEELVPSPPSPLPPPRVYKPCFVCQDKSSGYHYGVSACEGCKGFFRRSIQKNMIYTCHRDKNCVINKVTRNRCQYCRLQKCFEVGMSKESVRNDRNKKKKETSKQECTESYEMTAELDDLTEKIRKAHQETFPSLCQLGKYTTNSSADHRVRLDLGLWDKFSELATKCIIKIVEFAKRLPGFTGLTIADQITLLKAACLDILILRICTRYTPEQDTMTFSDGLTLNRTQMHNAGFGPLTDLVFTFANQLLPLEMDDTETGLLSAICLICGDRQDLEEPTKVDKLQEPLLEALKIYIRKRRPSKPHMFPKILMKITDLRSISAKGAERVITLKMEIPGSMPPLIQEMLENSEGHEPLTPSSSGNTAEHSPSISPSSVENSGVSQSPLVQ
Sequence of Retinoic acid receptor RXR-alpha (Homo sapiens) (P19793 whole entry): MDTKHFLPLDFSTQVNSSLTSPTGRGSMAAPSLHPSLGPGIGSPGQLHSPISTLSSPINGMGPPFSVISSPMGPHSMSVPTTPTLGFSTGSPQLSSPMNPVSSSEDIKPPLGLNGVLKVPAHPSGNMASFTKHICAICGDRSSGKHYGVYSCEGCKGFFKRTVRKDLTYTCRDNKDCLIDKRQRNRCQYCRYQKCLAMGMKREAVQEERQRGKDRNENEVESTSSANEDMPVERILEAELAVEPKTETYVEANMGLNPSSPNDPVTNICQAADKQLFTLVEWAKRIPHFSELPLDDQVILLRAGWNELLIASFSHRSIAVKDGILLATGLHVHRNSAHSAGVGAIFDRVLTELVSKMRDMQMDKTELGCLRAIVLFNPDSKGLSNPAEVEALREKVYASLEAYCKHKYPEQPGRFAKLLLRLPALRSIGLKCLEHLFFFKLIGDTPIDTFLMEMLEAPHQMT
Sequence of Thyroid hormone receptor beta (Homo sapiens) (P10828 whole entry): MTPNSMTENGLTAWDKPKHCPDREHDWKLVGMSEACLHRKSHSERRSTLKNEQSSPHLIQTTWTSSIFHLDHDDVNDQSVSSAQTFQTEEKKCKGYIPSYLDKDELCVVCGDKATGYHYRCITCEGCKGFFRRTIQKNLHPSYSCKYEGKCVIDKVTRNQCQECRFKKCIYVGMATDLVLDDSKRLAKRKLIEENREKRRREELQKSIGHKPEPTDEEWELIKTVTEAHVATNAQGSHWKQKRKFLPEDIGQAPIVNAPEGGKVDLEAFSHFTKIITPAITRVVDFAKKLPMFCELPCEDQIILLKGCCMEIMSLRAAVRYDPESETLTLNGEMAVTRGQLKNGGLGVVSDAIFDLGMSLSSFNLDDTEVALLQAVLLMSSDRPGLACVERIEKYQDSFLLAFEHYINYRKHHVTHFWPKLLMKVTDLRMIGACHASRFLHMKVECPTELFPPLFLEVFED
Sequence of Bile acid receptor (Homo sapiens) (Q96RI1 whole entry): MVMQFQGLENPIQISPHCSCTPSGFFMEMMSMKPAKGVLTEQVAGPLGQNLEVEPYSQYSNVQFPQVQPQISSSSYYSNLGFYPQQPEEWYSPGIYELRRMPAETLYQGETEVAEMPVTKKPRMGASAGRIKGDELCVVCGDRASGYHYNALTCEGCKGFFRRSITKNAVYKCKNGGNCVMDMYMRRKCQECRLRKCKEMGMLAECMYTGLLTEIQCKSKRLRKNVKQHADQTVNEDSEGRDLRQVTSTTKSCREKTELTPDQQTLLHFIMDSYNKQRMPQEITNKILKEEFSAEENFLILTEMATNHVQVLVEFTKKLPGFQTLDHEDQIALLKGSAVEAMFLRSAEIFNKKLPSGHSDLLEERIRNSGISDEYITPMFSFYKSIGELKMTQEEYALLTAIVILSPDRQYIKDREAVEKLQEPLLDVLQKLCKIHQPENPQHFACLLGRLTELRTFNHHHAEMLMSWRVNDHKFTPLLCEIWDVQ
Sequence of Voltage-gated inwardly rectifying potassium channel KCNH2 (Q12809 whole entry): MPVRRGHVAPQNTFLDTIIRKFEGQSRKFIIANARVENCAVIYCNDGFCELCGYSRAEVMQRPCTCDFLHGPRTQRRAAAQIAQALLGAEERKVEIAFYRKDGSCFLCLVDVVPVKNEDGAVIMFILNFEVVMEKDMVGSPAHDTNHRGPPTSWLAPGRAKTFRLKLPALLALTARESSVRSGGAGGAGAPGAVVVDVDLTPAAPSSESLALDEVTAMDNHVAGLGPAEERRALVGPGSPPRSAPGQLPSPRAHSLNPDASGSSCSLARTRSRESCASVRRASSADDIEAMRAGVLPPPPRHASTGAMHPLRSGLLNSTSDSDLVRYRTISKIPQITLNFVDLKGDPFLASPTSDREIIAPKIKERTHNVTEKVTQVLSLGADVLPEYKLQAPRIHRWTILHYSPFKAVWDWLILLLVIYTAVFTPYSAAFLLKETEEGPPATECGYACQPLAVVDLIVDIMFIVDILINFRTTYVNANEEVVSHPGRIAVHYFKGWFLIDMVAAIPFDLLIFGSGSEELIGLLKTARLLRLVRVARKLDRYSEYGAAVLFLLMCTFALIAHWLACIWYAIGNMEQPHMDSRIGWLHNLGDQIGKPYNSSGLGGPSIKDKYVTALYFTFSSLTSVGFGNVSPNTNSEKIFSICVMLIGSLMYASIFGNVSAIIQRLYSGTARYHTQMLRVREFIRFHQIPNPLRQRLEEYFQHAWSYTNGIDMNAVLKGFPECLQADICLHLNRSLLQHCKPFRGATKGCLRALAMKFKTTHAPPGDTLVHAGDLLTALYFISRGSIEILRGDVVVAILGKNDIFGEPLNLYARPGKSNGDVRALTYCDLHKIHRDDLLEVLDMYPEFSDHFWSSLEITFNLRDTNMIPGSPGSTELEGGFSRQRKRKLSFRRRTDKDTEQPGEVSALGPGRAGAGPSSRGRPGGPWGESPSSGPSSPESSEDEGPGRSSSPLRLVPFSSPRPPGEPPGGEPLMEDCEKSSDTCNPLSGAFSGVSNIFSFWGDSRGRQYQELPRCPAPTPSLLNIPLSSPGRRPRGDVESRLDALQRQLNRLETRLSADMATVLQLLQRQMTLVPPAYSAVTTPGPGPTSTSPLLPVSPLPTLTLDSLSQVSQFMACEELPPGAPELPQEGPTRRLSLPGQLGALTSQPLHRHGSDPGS
Sequence of Retinoic acid receptor alpha (Homo sapiens) (P10276 whole entry): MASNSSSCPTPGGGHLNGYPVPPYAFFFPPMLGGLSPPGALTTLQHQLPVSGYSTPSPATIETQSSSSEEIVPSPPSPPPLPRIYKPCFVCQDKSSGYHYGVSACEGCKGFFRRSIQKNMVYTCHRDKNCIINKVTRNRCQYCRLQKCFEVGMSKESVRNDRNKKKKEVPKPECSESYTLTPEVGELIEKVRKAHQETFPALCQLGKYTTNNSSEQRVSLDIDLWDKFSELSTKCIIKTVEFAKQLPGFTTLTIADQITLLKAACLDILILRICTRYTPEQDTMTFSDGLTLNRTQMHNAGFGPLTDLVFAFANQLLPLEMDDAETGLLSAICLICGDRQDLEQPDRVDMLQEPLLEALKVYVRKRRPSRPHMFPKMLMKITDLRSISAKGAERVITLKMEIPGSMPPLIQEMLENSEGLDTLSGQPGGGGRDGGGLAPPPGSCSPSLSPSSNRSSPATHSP
Sequence of Vitamin D3 receptor (Homo sapiens) (P11473 whole entry): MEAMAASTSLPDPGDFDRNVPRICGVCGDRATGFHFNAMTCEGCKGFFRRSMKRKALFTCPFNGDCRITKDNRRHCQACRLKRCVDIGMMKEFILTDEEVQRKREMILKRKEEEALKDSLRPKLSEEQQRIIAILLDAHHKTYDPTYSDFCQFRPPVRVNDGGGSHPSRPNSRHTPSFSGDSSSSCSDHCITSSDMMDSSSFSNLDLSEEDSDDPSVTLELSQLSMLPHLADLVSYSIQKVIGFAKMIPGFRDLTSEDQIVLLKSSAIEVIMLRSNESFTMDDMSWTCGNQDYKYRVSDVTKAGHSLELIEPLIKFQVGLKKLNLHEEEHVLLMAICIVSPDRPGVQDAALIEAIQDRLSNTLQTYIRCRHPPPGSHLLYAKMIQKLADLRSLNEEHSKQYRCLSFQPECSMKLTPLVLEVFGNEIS

Cc1cc(CN2C(=O)CN(c3ccc(C(F)(F)F)cc3)C2=O)cc(C)c1OC(C)(C)C(=O)O
Activity [1]: Dose-Dependent Effect | Activity [2]: inactive | Activity [3]: Active | Activity [4]: inactive | Activity [5]: Active | Activity [6]: Active | Activity [7]: Active | Activity [8]: Active | Activity [9]: Active | Activity [10]: inactive | IC50 [11]: > 30 µM | Activity [12]: Active | Activity [13]: Active | Activity [14]: Active | Activity [15]: Active | Activity [16]: inactive | Activity [17]: Dose-Dependent Effect | Activity [18]: Active | Activity [19]: inactive | Activity [20]: Dose-Dependent Effect | Activity [21]: inactive | Activity [22]: Active | Activity [23]: Active | Activity [24]: Active | CL [25]: 8.4 mL/min/kg | Activity [26]: Dose-Dependent Effect | Activity [27]: Non-Toxic | Activity [28]: Active | Activity [29]: Dose-Dependent Effect | Activity [30]: Non-Toxic | Activity [31]: Active
